Data from patent US20130130903A1, “Suppression of Foliar and Soilborne Pathogens” (priority 2003, published 2013).

Tests used:
stripe rust = assay: Glyphosate amount and timing on glyphosate resistant Macon wheat: stripe rust and yield; format: in vivo, Puccinia striiformis
Excerpt: This example describes the effect of glyphosate treatment of glyphosate resistant wheat in varying amounts and at different times. Eight different treatment regimens were applied to the hard white spring wheat variety Macon, which is susceptible to stripe rust. Macon plots were planted at the Palouse Conservation Farm near Pullman, Washington and subjected to one of the following eight treatment regimens:
Treatment 1: no herbicide treatment and manual weed control;
Treatment 2: a 16 oz./A (0.50 kg/ha of active ingredient) application of glyphosate, one-half the recommended rate of 32 oz./A (1.0 kg/ha of active ingredient), was made ‘on-label’ to glyphosate resistant wheat at the 4-5 leaf stage.
Treatment 3: a first application of glyphosate at one-half (0.50 kg/ha of active ingredient) the recommended density of 1.0 kg/ha was made to glyphosate resistant wheat at the 4-5 leaf stage according to the manufacturer's instructions. A second application of 16 oz./A (0.50 kg/ha of active ingredient) glyphosate was made once moderate stripe rust symptoms appeared (42 days following the first glyphosate application).
Treatment 4: a 16 oz./A (0.50 kg/ha of active ingredient) application of glyphosate, one-half the recommended rate, was made to glyphosate resistant wheat once moderate stripe rust symptoms appeared.
Treatment 5: a 32 oz./A (1.0 kg/ha of active ingredient) application of glyphosate, the recommended full rate, was made ‘on-label’ to glyphosate resistant wheat at the 4-5 leaf stage.
Treatment 6: a first application of 32 oz./A. (1.0 kg/ha of active ingredient) glyphosate, the recommended full rate, was made ‘on-label’ to glyphosate resistant wheat at the 4-5 leaf stage and a second application of 32 oz./A. (1.0 kg/ha) glyphosate was made once moderate stripe rust symptoms appeared.
Treatment 7: a 32 oz./A. (1.0 kg/ha of active ingredient) application of glyphosate was made to glyphosate resistant wheat once moderate stripe rust symptoms appeared. Treatment 8: a 48 oz./A. ([…] of active ingredient) application of glyphosate, 1.5 times the recommended rate, was made to glyphosate resistant plants at the 4-5 leaf stage.
With reference to Table 7, stripe rust severity is characterized with two numerical indications. The first is a number characterizing the stripe rust severity on a scale of 0-9, with 0 corresponding to no infection and 9 being a high level of spore activity and infection. The second number is a percentage of the plants in the plot infected with the rating described by the first number.

[1] = system: Rhizoctonia solani isolate AG-8; assay: Field yield of Rhizoctonia inoculated spring wheat after herbicide treatment; format: in vivo; details: for Yield: glyphosate on glyphosate res. wheat, Buctril/Harmony on sensitive wheat
Excerpt: This example describes the response of glyphosate resistant and glyphosate sensitive spring wheat to inoculation with soil pathogens as judged by wheat yield. Inoculation simulates the green-bridge effect of dying weeds and volunteer in a standing wheat crop. The soil pathogens assessed were: Rhizoctonia solani isolate AG-8 and Gaeumannomyces graminis var. tritici. These pathogenic strains are prevalent in the Pacific Northwest and were isolated from the region. They have been maintained by the Department of Plant Pathology and USDA researchers at Washington State University.
Near isogenic lines (glyphosate resistant and glyphosate sensitive) of Westbred 926 and Bobwhite were seeded using a no-till drill at three different sites (Lind, Davenport and Pullman, Wash.).
To introduce the root pathogens into the wheat seed for distribution into the field, oat seeds, autoclaved and sterilized, were inoculated for each soilborne pathogen using isolated pathogen cultures. Oat seeds that were non-inoculated, but sterilized and autoclaved, served as a control. Following two weeks of pathogen growth, the inoculated oat seeds were dried down for 2 days and screened for potential contamination. To establish a green-bridge, a mixture of 15% barley and 20% oat inoculum seeds (by weight) were planted using a small plot no-till drill. One week after planting the introduced green-bridge, the wheat isolines were planted in rows adjacent to the barley green-bridge rows in a randomized, split-plot design, replicated in five randomized blocks. Inoculum treatment served as the main plot, and response to herbicides as the subplot factor.
This example describes the effect of herbicide treatment on spring wheat, averaged over all disease treatments, planted as described in Example 1. The appropriate herbicide was applied to each trial once the plants reached the 4-5 leaf stage with a custom built hand-pulled sprayer outfitted with a boom with a length of 16 feet with spray shields on the side to minimize drift. In this manner, an entire plot was treated at once with the appropriate herbicide rate. Entries that were resistant to glyphosate were treated with ROUNDUP® brand herbicide (0.63 kg/ha), available from Monsanto, St. Louis, Mo. Herbicide sensitive and resistant entries were treated with a common broadleaf herbicide treatment (Buctril/Harmony) or a no-spray control. Introduced green-bridge barley and any other weeds were manually removed 7-10 days after spray treatment to simulate the time required for ROUNDUP to take effect and maintained weed-free conditions to provide an accurate comparison to commercial weed management strategies needed to assess potential herbicide/disease interactions. […]

[2] = 16 oz (52 days) and 16 oz (94 days)
[3] = 32 oz (52 days) and 32 oz (94 days)
[4] = off-label applications made 94 days after planting

O=C(O)CNCP(=O)(O)O [glyphosate, N-phosphonomethylglycine]
Stripe Rust (96 days after planting), percentage of the plants in the plot infected with the rating (stripe rust; 16 oz (52 days)): 10% | Stripe Rust (102 days after planting), percentage of the plants in the plot infected with the rating (stripe rust; 16 oz (52 days)): 30% | Stripe Rust (102 days after planting), severity on a scale of 0-9 (stripe rust; 16 oz (52 days)): 7-8 | Stripe Rust (106 days after planting), percentage of the plants in the plot infected with the rating (stripe rust; 16 oz (52 days)): 30% | Stripe Rust (106 days after planting), severity on a scale of 0-9 (stripe rust; 16 oz (52 days)): 8 | Yield (stripe rust; 16 oz (52 days)): 60.2 bu/A | Stripe Rust (96 days after planting), percentage of the plants in the plot infected with the rating (stripe rust; [2]): 10% | Stripe Rust (96 days after planting), severity on a scale of 0-9 (stripe rust; [2]): 4-5 | Stripe Rust (102 days after planting), percentage of the plants in the plot infected with the rating (stripe rust; [2]): 10% | Stripe Rust (102 days after planting), severity on a scale of 0-9 (stripe rust; [2]): 0-1 | Stripe Rust (106 days after planting), percentage of the plants in the plot infected with the rating (stripe rust; [2]): 10% | Stripe Rust (106 days after planting), severity on a scale of 0-9 (stripe rust; [2]): 2 | Yield (stripe rust; [2]): 68.7 bu/A | Stripe Rust (96 days after planting), severity on a scale of 0-9 (stripe rust; 16 oz (52 days), 0 = no infection, 9 = high level of spore activity and infection): 7-8 | Stripe Rust (96 days after planting), percentage of the plants in the plot infected with the rating (stripe rust; 16 oz (94 days)): 20% | Stripe Rust (102 days after planting), percentage of the plants in the plot infected with the rating (stripe rust; 16 oz (94 days)): 20% | Stripe Rust (102 days after planting), severity on a scale of 0-9 (stripe rust; 16 oz (94 days)): 2-3 | Stripe Rust (106 days after planting), percentage of the plants in the plot infected with the rating (stripe rust; 16 oz (94 days)): 15% | Stripe Rust (106 days after planting), severity on a scale of 0-9 (stripe rust; 16 oz (94 days)): 2-3 | Yield (stripe rust; 16 oz (94 days)): 52.7 bu/A | Stripe Rust (96 days after planting), severity on a scale of 0-9 (stripe rust; 16 oz (94 days), once moderate stripe rust symptoms appeared): 7-8 | Stripe Rust (96 days after planting), percentage of the plants in the plot infected with the rating (stripe rust; 32 oz (52 days)): 20% | Stripe Rust (96 days after planting), severity on a scale of 0-9 (stripe rust; 32 oz (52 days)): 7-8 | Stripe Rust (102 days after planting), percentage of the plants in the plot infected with the rating (stripe rust; 32 oz (52 days)): 40% | Stripe Rust (102 days after planting), severity on a scale of 0-9 (stripe rust; 32 oz (52 days)): 7-8 | Stripe Rust (106 days after planting), percentage of the plants in the plot infected with the rating (stripe rust; 32 oz (52 days)): 60% | Stripe Rust (106 days after planting), severity on a scale of 0-9 (stripe rust; 32 oz (52 days)): 8 | Yield (stripe rust; 32 oz (52 days)): 80.3 bu/A | Stripe Rust (96 days after planting), percentage of the plants in the plot infected with the rating (stripe rust; [3]): 5% | Stripe Rust (96 days after planting), severity on a scale of 0-9 (stripe rust; [3]): 9 | Stripe Rust (102 days after planting), percentage of the plants in the plot infected with the rating (stripe rust; [3]): 5% | Stripe Rust (102 days after planting), severity on a scale of 0-9 (stripe rust; [3]): 1-2 | Stripe Rust (106 days after planting), percentage of the plants in the plot infected with the rating (stripe rust; [3]): 10% | Stripe Rust (106 days after planting), severity on a scale of 0-9 (stripe rust; [3]): 3 | Yield (stripe rust; [3]): 74.5 bu/A | Stripe Rust (96 days after planting), percentage of the plants in the plot infected with the rating (stripe rust; 32 oz (94 days)): 25% | Stripe Rust (102 days after planting), percentage of the plants in the plot infected with the rating (stripe rust; 32 oz (94 days)): 20% | Stripe Rust (102 days after planting), severity on a scale of 0-9 (stripe rust; 32 oz (94 days)): 0-1 | Stripe Rust (106 days after planting), percentage of the plants in the plot infected with the rating (stripe rust; 32 oz (94 days)): 5% | Stripe Rust (106 days after planting), severity on a scale of 0-9 (stripe rust; 32 oz (94 days)): 2 | Yield (stripe rust; 32 oz (94 days)): 64.5 bu/A | Stripe Rust (96 days after planting), severity on a scale of 0-9 (stripe rust; 32 oz (94 days), once moderate stripe rust symptoms appeared): 7-8 | Stripe Rust (96 days after planting), percentage of the plants in the plot infected with the rating (stripe rust; 48 oz (52 days)): 2% | Stripe Rust (96 days after planting), severity on a scale of 0-9 (stripe rust; 48 oz (52 days)): 7-8 | Stripe Rust (102 days after planting), percentage of the plants in the plot infected with the rating (stripe rust; 48 oz (52 days)): 10% | Stripe Rust (102 days after planting), severity on a scale of 0-9 (stripe rust; 48 oz (52 days)): 4-5 | Stripe Rust (106 days after planting), percentage of the plants in the plot infected with the rating (stripe rust; 48 oz (52 days)): 20% | Stripe Rust (106 days after planting), severity on a scale of 0-9 (stripe rust; 48 oz (52 days)): 8 | Yield (stripe rust; 48 oz (52 days)): 67.8 bu/A | control of stripe rust compared to the 16 oz./A and 32 oz./A application (stripe rust; 48 oz./A rate applied at the 4-5 leaf stage): did the best job of controlling stripe rust | effect on plants moderately infected with stripe rust (stripe rust; [4]): a curative effect was observed | formation of necrotic stripes on the leaves, time following glyphosate application (stripe rust; [4]): second day | control of stripe rust in the trial (stripe rust; treatments 3 and 6, split-treatments (52 and 94 days after planting)): best control of stripe rust | Yield ([1]; Davenport): 29.0 bu/acre | Yield ([1]; Lind): 14.0 bu/acre | Yield ([1]; Pullman): 53.9 bu/acre | yield relative to untreated and Buctril/Harmony treated glyphosate sensitive wheat ([1]; glyphosate resistant wheat): enhanced yield at each location
